Results from patent US5503843A, “Transdermal delivery of alpha adrenoceptor blocking agents” (priority 1994, dated 1996).
≈ marks a conversion by molar mass, not a printed value. Where two headings read alike, the source gives them in different places.

What was measured:
[1] = test system: mammalian lower urinary tract; details: in vivo; cited from earlier work
[2] = test system: alpha1 adrenergic receptors; details: WO93/17007; cited from earlier work
[3] = pKa of alpha blockers (Table 1); type: physicochemical
Source text: However, the solubility improvement largely depends on the choice of solvent, any specific common ion interaction and the size and polarity of the counterion. Often, salts prepared from strong acids are freely soluble in water. […] Suitable alkane- or arenesulfonic acid anions include […], tosylate (para-toluenesulfonate), mesylate (methanesulfonate), napsylate (1-napthalene-2-sulfonate), besylate (benzene sulfonate) and […].

rat bladder strip = details: WO93/17007; cited from earlier work
[4] = in vivo; cited from earlier work
[5] = Solubility of Rec 15/2739 free base in various vehicles (Table 2); type: physicochemical
Protocol: Table 2 provides the solubility of the free base forms of the alpha blocker Rec 15/2739 in various vehicles. Solubility of free base is indicated as μg per ml of medium. PBS indicates phosphate buffered saline (20 mM phosphate and 0.9% NaCl).

rabbit trigone = details: in vitro; cited from earlier work
[6] = test system: rabbit urethral ring tissues; details: in vitro; cited from earlier work
[7] = cited from earlier work
[8] = test system: smooth muscle originating from the trigone muscle at the base of the bladder; details: trigone smooth muscle preparations; cited from earlier work
[9] = test system: alpha1 A and alpha1 B adrenoceptors; details: Michel et al.; cited from earlier work
[10] = test system: guinea pig prostrate, urethra, and vesical triangle; details: Honda et al.; cited from earlier work
[11] = test system: rabbit prostrate, urethra, and vesical triangle; details: Honda et al.; cited from earlier work
[12] = test system: human urethra and vesical triangle; details: Honda et al.; cited from earlier work

For `COc1ccccc1N1CCN(CCCNC(=O)c2cccc3c(=O)c(C)c(-c4ccccc4)oc23)CC1` [Rec 15/2739, 8(3-4-(2-methoxyphenyl)-1-piperazinyl!-propylcarbamoyl)-3-methyl-4-oxo-2-phenyl-4H-1-benzopyran], the “selectivity for lower urinary tract (urethral contractions vs lowering blood pressure)” value [1] is listed as “substantially more active in antagonizing urethral contractions than in lowering blood pressure”, the “affinity and selectivity for alpha1 adrenergic receptors” value [2] is listed as “has affinity and selectivity for the alpha1 adrenergic receptors” and the pKa ([3]; read-out: pKa) is listed as 7. The “antagonistic effects against contractions induced by potassium chloride” value (rat bladder strip) was “demonstrate antagonistic effects against contractions of rat bladder strip induced by potassium chloride”, the toxicity [4] was “low toxicity” and the solubility ([5]; aqueous buffer, PBS pH 5.2) was 68 µg/mL (≈ 133 µM). For the same molecule, the solubility ([5]; aqueous buffer, PBS pH 6.7) was 5.2 µg/mL (≈ 10.2 µM) and the solubility ([5]; saline) was 1.5 µg/mL (≈ 2.93 µM).
`COc1cc2nc(N3CCN(C(=O)C4CCCO4)CC3)nc(N)c2cc1OC` (stereo not drawn) [Terazosin, reference compound] showed a pKa [3] of 7.1.
In the case of `COc1cc2nc(N(C)CCCNC(=O)[C@H]3CCCO3)nc(N)c2cc1OC` [R enantiomer], the “potency in antagonizing phenylephrine induced contraction (R vs S enantiomer)” value (shortened to “potency … (R vs S enantiomer)”) (rabbit trigone) is listed as “equally potent” and the “potency … (R vs S enantiomer)” value [6] is listed as “equally potent”.
For `COc1cc2nc(N(C)CCCNC(=O)C3CCCO3)nc(N)c2cc1OC` (stereo not drawn) [Alfuzosin, N-3-(4-Amino-6,7dimethoxy-2-quinazolinyl) methylamino!propyl!tetrahydro-2-furancarboxamide], the plasma half life ([7]; S. Lieto di Priolo et al.) is given as 4 to 9 h, the mean oral bioavailability ([7]; oral, Wilde et al.) is given as 64% and the “activity in altering phenylephrine induced contractions” value [8] is given as “shows activity in altering the phenylephrine induced contractions”. The “selectivity for alpha1 subtypes” value [9] was “lacks any relevant selectivity for alpha1 subtypes”.
For `CCOc1ccccc1OCCNC(C)Cc1ccc(OC)c(S(N)(=O)=O)c1` (stereo not drawn) [Tamsulosin, 5-2-2-(o-Ethoxyphenoxy)-ethyl!amino!propyl!-2-methoxybenzenesulfonamide], the reduction of contraction [10] is given as “reduces the contraction”, the reduction of contraction [11] is given as “reduces the contraction” and the reduction of contraction [12] is given as “reduces the contraction”.
In the case of `COc1cc2nc(N3CCN(C(=O)c4ccco4)CC3)nc(N)c2cc1OC` [Prazosin, reference compound], the “most common side effect” value [4] is given as “hypotension”.
For `COc1cc2nc(N(C)CCCNC(=O)[C@@H]3CCCO3)nc(N)c2cc1OC` [S enantiomer], the “potency … (R vs S enantiomer)” value (rabbit trigone) is listed as “equally potent” and the “potency … (R vs S enantiomer)” value [6] is listed as “equally potent”.
